Experimental data from ChEMBL document CHEMBL6109144, “Discovery of New Difluorocyclobutyl Derivatives as Effective Glucagon-Like Peptide-1 Receptor Agonists with Reduced hERG Inhibitory Activities” (J Med Chem, 2025).
pEC50: −log10 of the molar value.

Molecular target: Glucagon-like peptide 1 receptor (Homo sapiens, UniProt P43220)
Assay: Agonist activity at N-terminal hemagglutinin-tagged human GLP-1R expressed in CHO cells co-transfected with pcDNA3.0 assessed as increase in intracellular cAMP accumulation incubated for 30 mins by microplate reader analysis
Format: functional, cell-based

Glucagon-like peptide 1 receptor, sequence (P43220 whole entry): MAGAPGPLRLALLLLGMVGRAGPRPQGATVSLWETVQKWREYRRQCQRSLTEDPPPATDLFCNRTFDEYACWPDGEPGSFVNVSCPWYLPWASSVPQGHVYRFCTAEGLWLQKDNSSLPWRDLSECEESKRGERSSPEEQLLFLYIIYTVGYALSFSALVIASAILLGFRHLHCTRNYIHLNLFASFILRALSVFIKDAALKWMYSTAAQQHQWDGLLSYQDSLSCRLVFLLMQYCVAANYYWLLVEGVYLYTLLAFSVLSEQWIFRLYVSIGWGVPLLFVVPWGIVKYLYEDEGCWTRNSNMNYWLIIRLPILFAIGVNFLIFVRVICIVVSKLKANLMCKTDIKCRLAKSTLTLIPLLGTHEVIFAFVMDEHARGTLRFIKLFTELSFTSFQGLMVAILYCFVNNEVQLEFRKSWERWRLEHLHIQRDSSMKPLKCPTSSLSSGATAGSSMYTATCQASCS

In order of falling pEC50:
1. O=C(O)c1cc(F)c2nc(CN3CC=C(c4cccc(OCc5ccc(CC(F)F)cc5F)n4)CC3)n(C[C@@H]3CCO3)c2c1  10.82
2. C[C@H]1CN(c2cccc(OCc3ccc(CC(F)F)cc3F)n2)CCN1Cc1nc2c(F)cc(C(=O)O)cc2n1C[C@@H]1CCO1  10.15
3. O=C(O)c1cc(F)c2nc(CN3CCN(c4cccc(OCc5ccc(CC(F)F)cc5F)n4)CC3)n(C[C@@H]3CCO3)c2c1  10.07
4. O=C(O)c1ccc2nc(CN3CCC(c4cccc(OCc5ccc(C6CC(F)(F)C6)cc5F)n4)CC3)n(C[C@@H]3CCO3)c2c1  10.06
5. O=C(O)c1cc(F)c2nc(CN3CC=C(c4cccc(OCc5ccc(CC(F)(F)F)cc5F)n4)CC3)n(C[C@@H]3CCO3)c2c1  10.02
6. O=C(O)c1cc(F)c2nc(CN3CCC(c4cccc(OCc5ccc(CC(F)F)cc5F)n4)CC3)n(C[C@@H]3CCO3)c2c1  10.02
7. O=C(O)c1ccc2nc(CN3CCC(Oc4cccc(Cc5ccc(Cl)c6c5OCC6)n4)CC3)n(C[C@@H]3CCO3)c2c1  9.96
8. O=C(O)c1ccc2nc(CN3CC=C(c4cccc(OCc5ccc(CC(F)(F)F)cc5F)n4)CC3)n(C[C@@H]3CCO3)c2n1  9.89
9. O=C(O)c1ccc2nc(CN3CC=C(c4cccc(OCc5ccc(CC(F)F)cc5F)n4)CC3)n(C[C@@H]3CCO3)c2n1  9.89
10. O=C(O)c1cc2c(nc(CN3CCC(Oc4ccnc(COc5ccc(Cl)cc5F)n4)CC3)n2C[C@@H]2CCO2)s1  9.70
11. COc1cc2c(Cl)ccc(OCc3cccc(OC4CCN(Cc5nc6ccc(C(=O)O)cc6n5C[C@@H]5CCO5)CC4)n3)c2o1  9.70
12. O=C(O)c1ccc2nc(CN3CCC(Oc4cccc(COc5ccc(Cl)c6cc(F)oc56)n4)CC3)n(C[C@@H]3CCO3)c2c1  9.68
13. O=C(O)c1ccc2nc(CN3CCC(c4cccc(OCc5ccc(CC(F)F)cc5F)n4)CC3)n(C[C@@H]3CCO3)c2c1  9.59
14. O=C(O)c1ccc2nc(CN3CCC(Oc4cccc(COc5ccc6c(Cl)nn(CC(F)F)c6c5F)n4)CC3)n(C[C@@H]3CCO3)c2n1  9.49
15. N#Cc1ccc(OCc2nccc(OC3CCN(Cc4nc5sc(C(=O)O)cc5n4C[C@@H]4CCO4)CC3)n2)c(F)c1  9.49
16. O=C(O)c1ccc2nc(CN3CCC(Oc4ccnc(Cc5ccc(Cl)c6ccoc56)n4)CC3)n(C[C@@H]3CCO3)c2n1  9.47
17. O=C(O)c1ccc2nc(CN3CCC(Oc4cccc(Cc5ccc(Cl)c6occc56)n4)CC3)n(C[C@@H]3CCO3)c2n1  9.46
18. O=C(O)c1cc(F)c2nc(CN3CCC(c4cccc(OCc5ccc(CC(F)(F)F)cc5F)n4)CC3)n(C[C@@H]3CCO3)c2c1  9.46
19. COc1cc(C#N)ccc1OCc1nccc(OC2CCN(Cc3nc4sc(C(=O)O)cc4n3C[C@@H]3CCO3)CC2)n1  9.35
20. N#Cc1ccc(OCc2cccc(OC3CCN(Cc4nc5ccc(C(=O)O)cc5n4C[C@@H]4CCO4)CC3)n2)c(OC(F)(F)F)c1  9.34
21. O=C(O)c1cc2c(nc(CN3CCC(Oc4ccnc(Cc5ccc(Cl)cc5)n4)CC3)n2C[C@@H]2CCO2)s1  9.10
22. O=C(O)c1ccc2nc(CN3CCC(Oc4cccc(COc5ccc6cn[nH]c6c5)n4)CC3)n(C[C@@H]3CCO3)c2n1  9.08
23. O=C(O)c1cc2c(nc(CN3CCC(Oc4cccc(COc5ccc(Cl)cc5)n4)CC3)n2C[C@@H]2CCO2)s1  9.04
24. Cn1ncc2ccc(Cc3cccc(OC4CCN(Cc5nc6c(F)cc(C(=O)O)cc6n5C[C@@H]5CCO5)CC4)n3)c(F)c21  9.02
25. Cc1nn(C)c2c(F)c(Cc3cccc(OC4CCN(Cc5nc6ccc(C(=O)O)nc6n5C[C@@H]5CCO5)CC4)n3)ccc12  8.76
26. O=C(O)c1cc2c(nc(CN3CCC(Oc4cccc(COc5ccc(Cl)cc5F)n4)CC3)n2C[C@@H]2CCO2)s1  8.75
27. O=C(O)c1cc2c(nc(CN3CCC(Oc4ccnc(Cc5ccc(Cl)c6ccoc56)n4)CC3)n2C[C@@H]2CCO2)s1  8.74
28. O=C(O)c1cc2c(nc(CN3CCC(Oc4cccc(Cc5ccc(Cl)cc5)n4)CC3)n2C[C@@H]2CCO2)s1  8.58
29. CC1(c2ccc(COc3cccc(C4=CCN(Cc5nc6ccc(C(=O)O)nc6n5C[C@@H]5CCO5)CC4)n3)c(F)c2)CC(F)(F)C1  8.54
30. O=C(O)c1ccc2nc(CN3CCC(Oc4cccc(Cc5ccc6cnn(CC(F)F)c6c5F)n4)CC3)n(C[C@@H]3CCO3)c2n1  8.47
31. O=C(O)c1ccc2nc(CN3CCC(Oc4cccc(COc5cc(Cl)c6occc6c5)n4)CC3)n(C[C@@H]3CCO3)c2n1  8.44
32. O=C(O)c1cc2c(nc(CN3CCC(Oc4ccnc(COc5ccc(Cl)cc5)n4)CC3)n2C[C@@H]2CCO2)s1  8.43
33. O=C(O)c1cc2c(nc(CN3CCC(Oc4cccc(Cc5ccc(Cl)cc5F)n4)CC3)n2C[C@@H]2CCO2)s1  8.43
34. N#Cc1ccc(Cc2cccc(OC3CCN(Cc4nc5sc(C(=O)O)cc5n4C[C@@H]4CCO4)CC3)n2)cc1  8.26
35. CC1(c2ccc(COc3cccc(C4=CCN(Cc5nc6ccc(C(=O)O)cc6n5C[C@@H]5CCO5)CC4)n3)c(F)c2)CC(F)(F)C1  8.21
36. N#Cc1ccc(Cc2cccc(OC3CCN(Cc4nc5ccc(C(=O)O)nc5n4C[C@@H]4CCO4)CC3)n2)c2occc12  8.10
37. O=C(O)c1cc2c(nc(CN3CCC(Oc4cccc(OCc5ccc(Cl)cc5)n4)CC3)n2C[C@@H]2CCO2)s1  8.02
38. N#Cc1ccc(COc2cccc(OC3CCN(Cc4nc5sc(C(=O)O)cc5n4C[C@@H]4CCO4)CC3)n2)c(F)c1  8.01
39. N#Cc1ccc(Cc2cccc(OC3CCN(Cc4nc5sc(C(=O)O)cc5n4C[C@@H]4CCO4)CC3)n2)c(F)c1  8.01
40. O=C(O)c1cc2c(nc(CN3CCC(Oc4cccc(Cc5ccc6cnn(CC(F)F)c6c5)n4)CC3)n2C[C@@H]2CCO2)s1  7.84
41. O=C(O)c1cc2c(nc(CN3CCC(Oc4cccc(Cc5ccc(-c6ccn(C(F)F)n6)cc5)n4)CC3)n2C[C@@H]2CCO2)s1  7.77
42. COc1ccc(C(F)(F)F)cc1OCc1nccc(OC2CCN(Cc3nc4sc(C(=O)O)cc4n3C[C@@H]3CCO3)CC2)n1  7.71
43. COc1ccc(Cc2cccc(OC3CCN(Cc4nc5sc(C(=O)O)cc5n4C[C@@H]4CCO4)CC3)n2)cc1  7.69
44. O=C(O)c1ccc2nc(CN3CCC(Oc4cccc(Cc5ccc6cn[nH]c6c5F)n4)CC3)n(C[C@@H]3CCO3)c2n1  7.33
45. O=C(O)c1ccc2nc(CN3CCC(Oc4cccc(Cc5ccc(C6COC6)cc5)n4)CC3)n(C[C@@H]3CCO3)c2n1  7.25
46. Cn1ncc2ccc(Cc3cccc(OC4CCN(Cc5nc6sc(C(=O)O)cc6n5C[C@@H]5CCO5)CC4)n3)c(F)c21  7.11
47. O=C(O)c1cc2c(nc(CN3CCC(Oc4cccc(Cc5ccccc5F)n4)CC3)n2C[C@@H]2CCO2)s1  7.09
48. O=C(O)c1cc2c(nc(CN3CCC(Oc4cccc(Cc5ccccc5)n4)CC3)n2C[C@@H]2CCO2)s1  7.06
49. N#Cc1ccc(Cc2cccc(OC3CCN(Cc4nc5sc(C(=O)O)cc5n4C[C@@H]4CCO4)CC3)n2)c2occc12  7.01
50. Cn1ncc2ccc(Cc3cccc(OC4CCN(Cc5nc6ccc(C(=O)O)nc6n5C[C@@H]5CCO5)CC4)n3)c(F)c21  6.99
51. O=C(O)c1cc2c(nc(CN3CCC(Oc4cccc(Cc5ccc6cn[nH]c6c5F)n4)CC3)n2C[C@@H]2CCO2)s1  6.75
52. Cn1ncc2ccc(Cc3cccc(OC4CCN(Cc5nc6sc(C(=O)O)cc6n5C[C@@H]5CCO5)CC4)n3)cc21  6.59
53. O=C(O)c1cc2c(nc(CN3CCC(Oc4nccc(Cc5ccc(Cl)cc5)n4)CC3)n2C[C@@H]2CCO2)s1  6.40
54. Cn1ccc(-c2ccc(Cc3cccc(OC4CCN(Cc5nc6sc(C(=O)O)cc6n5C[C@@H]5CCO5)CC4)n3)cc2)n1  6.18
